Assay results reported in patent publication EP1733758A1, “Methods for administration of a farnesyl dibenzodiazepinone” (Ecopia Biosciences Inc., priority 2005, dated 2006).
Values joined by “and” are separate entries in the source; they are usually repeats but may differ in a detail not shown here. Equal values may be shown once. Read-outs that look alike come from different tables or passages of the source.

Assays:
[1] = Pharmacokinetics and tissue distribution after bolus IV, IP, SC and PO administration in mice; assay type: in vivo, female Crl: CD1 mice
Experimental: The compound of formula I was dissolved in ethanol (5%), Polysorbate 80 (15%), PEG 400 (5%) and dextrose (5%) at a final concentration of 6 mg/ml (IV, IP and SC administration). For oral administration, the compound of Formula I was solubilized in Chremophor® EL/ Ethanol (50%:50%) at a final concentration of 6 mg/ml. Prior to dosing, animals (female Crl: CD1 mice; 6 weeks of age, 22-24g) were weighed, randomly selected and assigned to the different treatment groups. The compound of Formula I was administered by the bolus intravenous (IV), bolus subcutaneous (SC), bolus intraperitoneal (IP), or oral (PO) route to the assigned animals. The dosing volume of Formula I was 5 mL per kg body weight. Animals were anesthetized prior to bleeding with 5% isoflurane. Blood was collected into microtainer tubes containing the anticoagulant K2EDTA by cardiac puncture from each of 4 animals per bleeding timepoint (2min, 5 min, 15 min, 30 min, 1 h, 2h, 4h and 8h). Following collection, the samples were centrifuged and the plasma obtained from each sample was recovered and stored frozen (at approximately - 80°C) pending analysis. At the 5 min and 30 min time points, the following organs were harvested from each animal: brain, lungs, skeletal muscle, fat tissue, kidneys, spleen, thymus and liver. Tissues were frozen (at approximately -80°C) pending analysis. Samples were analysed by LC/MS/MS.
Plasma values of the compound of Formula I falling below the limit of quantitation (LOQ) were set to zero. […] The following pharmacokinetic parameters were calculated: area under the plasma concentration versus time curve from time zero to the last measurable concentration time point (AUCO-t), area under the plasma concentration versus time curve extrapolated to infinity (AUCinf), maximum observed plasma concentration (Cmax), time of maximum plasma concentration (tmax), apparent first-order terminal elimination rate constant (kel), apparent first-order terminal elimination half-life will be calculated as 0.693/kel (t1/2). The systemic clearance (CL) of the compound of Formula I after intravenous administration was calculated using Dose/AUCinf. Pharmacokinetic parameters were calculated using Kinetica™ 4.1.1 (InnaPhase Corporation, Philadelphia, PA).

[2] = Pharmacokinetics of 14-day continuous intravenous infusion in monkeys; assay type: in vivo, Cynomolgus monkeys; settings: for Css / mean steady-state plasma concentration / T½z: 14-day CIV; for Css: average between 30h and 14 days; for Css / T½z: mean; for mean steady-state plasma concentration: between 30 h and 14 days; for T½z: calculated at the end of treatment; for plasma concentration: CIV 30 mg/kg/day
Experimental: Cynomolgus monkeys received continuous IV infusion over 14 days of Formula I at 5 mg/kg/day, 15 mg/kg/day, or 30 mg/kg/day. The drug was infused intravenously (24 hours/day) into the femoral vein at a dose rate of 2 ml/kg/hour for 14 consecutive days. Blood samples were removed from each monkey on Days 1, 2, 6, 10, and 15 of the treatment period. Monkeys were bled by venipuncture and samples were collected into tubes containing K2EDTA. On Day 1, samples were collected at 2, 6, and 12 hours after initiation of treatment. Additional samples were collected at 30 hours after the start of infusion (Day 2). On Days 6 and 10, samples were collected at approximately 6 hours after the bag changes. At the end of the 14 days of infusion, on Day 15, samples were collected at 1 hour prior to cessation of dose administration, and at 5 min, 30 min, 1 h, 2 h, 4 h, 8 h, and 24 h following cessation of dose administration.

[3] = Toxicity of 14-day continuous intravenous infusion in rats; assay type: in vivo; settings: 14-day infusion, all treated and control groups, toxicity was due to the vehicle
Experimental: Sprague-Dawley rats received an intravenous continuous infusion over 14 days of Formula I at 25 mg/kg/day, 50 mg/kg/day, or 75 mg/kg/day at a rate of 2 mL/kg/h for 14 consecutive days (same formulation as in Example 7). Blood was collected from the jugular vein in tubes containing K2 EDTA from 3 rats/sex/group at the following time points: 2, 6, and 12 hours after the start of dosing on Day 1, on Day 2 at 6 hours (approximately 30 hours after the start of dosing), on Days 6 and 10 at 6 hours, and on Day 15, 1 hour prior the end of dosing, and then at 5 min, 15 min, 30 min, 1 h, and 2 h after the end of dosing.
The toxicity was due to the vehicle and was attributed to smaller size of infusion vessels, and concurrent catheter tract infection.

Structure (SMILES): CC(C)=CCC/C(C)=C/CC/C(C)=C/CN1C(=O)c2cccc(O)c2Nc2c(O)cc(O)cc21 [Formula I, 10-farnesyl-4,6,8-trihydroxy-dibenzodiazepin-11-one]
- plasma concentration ([1]; 30 mg/kg bolus IV, initial): 425000 nM
- peak concentration ([1]; IP bolus, plasma): 7.8 µM
- time peak concentration reached ([1]; IP bolus, plasma): 15 min
- tissue distribution ([1]; IV and IP bolus 30 mg/kg, 30 min): well distributed
- tissue levels compared with IP ([1]; SC bolus 30 mg/kg, 30 min): significantly lower
- peak concentration ([1]; SC bolus, plasma): 2.3 µM
- time peak concentration reached ([1]; SC bolus, plasma): 60 min
- bioavailability ([1]; female, Crl: CD1, mouse, plasma, PO 30 mg/kg compared to IV bolus administration, read-out: orally bioavailable): 5 to 8%
- half-life ([1]; female, Crl:CD1, mouse, bolus IV 30 mg/kg, plasma, read-out: t1/2 α): 4.7 min
- concentration at 8 h ([1]; female, Crl:CD1, mouse, plasma, 30 mg/kg bolus IV, by 8 hours, read-out: plasma concentration): ~100 nM
- concentration at 4 h ([1]; female, Crl:CD1, mouse, plasma, 30 mg/kg bolus IV, four hours after administration): 200 nM
- concentration at 1 h ([1]; female, Crl:CD1, mouse, plasma, 30 mg/kg bolus IV, within one hour): 1300 nM
- concentration at 8 h ([1]; female, Crl:CD1, mouse, plasma, 30 mg/kg, IP bolus, read-out: plasma concentration remained for up to 8 hours): ~950 nM
- concentration at 8 h ([1]; female, Crl:CD1, mouse, plasma, 30 mg/kg, SC bolus, read-out: plasma concentration remained for up to 8 hours): ~1800 nM
- time plasma concentration is maintained at therapeutically relevant levels ([1]; intraperitoneal and subcutaneous 30 mg/kg): over 8 hours
- AUC increase between the groups ([2]; 15 mg/kg/day group versus 5 mg/kg/day group): 3.4 fold
- AUC higher than that of the middle dose group ([2]; 30 mg/kg/day group versus 15 mg/kg/day group): 4.7 fold
- Css ([2]; 5 mg/kg/day): 358 ng/mL and 358 ^b ng/mL
- mean steady-state plasma concentration ([2]; 5 mg/kg/day): ~0.8 µM
- T½z ([2]; 5 mg/kg/day): 12 h
- Css ([2]; 15 mg/kg/day): 1,173 ng/mL
- mean steady-state plasma concentration ([2]; 15 mg/kg/day): ~2.5 µM
- T½z ([2]; 15 mg/kg/day): 8.3 h
- Css ([2]; 30 mg/kg/day): 6,283 ng/mL
- T½z ([2]; 30 mg/kg/day): 8.1 h
- plasma concentration ([2]; Day 1): 2,814 ng/mL
- plasma concentration ([2]; Day 6): 4,354 ng/mL
- plasma concentration ([2]; Day 10): 6,855 ng/mL
- plasma concentration ([2]; day 15): 8,561 ng/mL
- infusion site findings [3]: necrotization and inflammatory lesions at the site of infusion
